Data: ChEMBL document CHEMBL2163253, “Identification and preliminary characterization of a potent, safe, and orally efficacious inhibitor of acyl-CoA:diacylglycerol acyltransferase 1” (J Med Chem, 2012)
Blank lines part the entries; values can stand above or below the molecule they belong to. Active and inactive are the calls of the source. The rule behind the calls is not given here.

Assays:
[1] = Stability in human liver microsomes assessed as parent compound remaining measured after 60 mins; assay type: ADME, Microsome; conditions: read-out: Stability
[2] = biological target: T1, Diacylglycerol O-acyltransferase 1 (Homo sapiens, UniProt O75907); test: biochemical
T1 sequence (O75907 whole entry): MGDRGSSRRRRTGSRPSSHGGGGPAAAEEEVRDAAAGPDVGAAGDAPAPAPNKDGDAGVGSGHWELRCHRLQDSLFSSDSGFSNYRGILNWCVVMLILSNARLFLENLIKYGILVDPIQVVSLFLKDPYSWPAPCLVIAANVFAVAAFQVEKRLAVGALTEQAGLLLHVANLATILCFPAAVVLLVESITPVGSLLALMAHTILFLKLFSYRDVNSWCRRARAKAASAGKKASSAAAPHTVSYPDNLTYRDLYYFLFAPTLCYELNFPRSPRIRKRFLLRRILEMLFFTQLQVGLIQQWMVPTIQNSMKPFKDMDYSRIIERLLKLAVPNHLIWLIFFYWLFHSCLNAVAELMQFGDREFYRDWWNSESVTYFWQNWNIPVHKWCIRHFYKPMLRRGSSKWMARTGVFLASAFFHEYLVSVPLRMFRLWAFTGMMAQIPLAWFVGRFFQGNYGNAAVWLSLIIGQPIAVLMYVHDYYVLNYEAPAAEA
Description: Inhibition of N-terminal His6-tagged human recombinant DGAT1 expressed in insect cell membrane using [1-14C]decanoyl-CoA substrate by phospholipid flash plate assay

[3] = Plasma concentration in CD1 mouse postprandial hyperlipidemia model at 3 mg/kg, po administered as single dose 1 hr before oral corn oil bolus challenge and measured after 2 hrs; assay type: ADME, organism-based; parameters: dose 3 mg/kg, route oral
[4] = test system: Mus musculus; test: Reduction in serum triglyceride level in CD1 mouse postprandial hyperlipidemia model at 0.03 mg/kg, po administered as single dose 1 hr before oral corn oil bolus challenge and measured after 2 hrs; assay type: functional; parameters: scale not given: the % may be the effect or the level left
[5] = test system: Mus musculus; test: Reduction in serum triglyceride level in CD1 mouse postprandial hyperlipidemia model at 0.3 mg/kg, po administered as single dose 1 hr before oral corn oil bolus challenge and measured after 2 hrs; assay type: functional; parameters: scale not given: the % may be the effect or the level left
[6] = Volume of distribution at steady state in rat at 5 mg/kg, iv administered as single dose; assay type: ADME, organism-based; parameters: dose 5 mg/kg, route intravenous; conditions: in vivo, read-out: Vdss
[7] = Volume of distribution at steady state in mouse at 10 mg/kg, iv administered as single dose; assay type: ADME, organism-based; parameters: dose 10 mg/kg, route intravenous; conditions: in vivo, read-out: Vdss
[8] = organism: Mustela putorius furo; test: Toxicity in ferret assessed as induction of emesis; assay type: organism-based; conditions: in vivo
[9] = test system: Canis familiaris; test: AUC in dog dosed orally for 2 weeks assessed as terminal exposure; conditions: in vivo, po, 336 h
[10] = Cmax in rat at 5 mg/kg, po administered as single dose; assay type: ADME, organism-based; parameters: dose 5 mg/kg, route oral; conditions: in vivo
[11] = Plasma concentration in CD1 mouse postprandial hyperlipidemia model at 0.03 mg/kg, po administered as single dose 1 hr before oral corn oil bolus challenge and measured after 2 hrs; assay type: ADME, organism-based; parameters: dose 0.03 mg/kg, route oral
[12] = Terminal half life in rat at 5 mg/kg, iv administered as single dose; assay type: ADME, organism-based; parameters: dose 5 mg/kg, route intravenous; conditions: in vivo, read-out: beta t1/2 (converted)
[13] = Efflux ratio in human Caco2 cells at 5 uM at pH 7.4; assay type: ADME, cell-based; conditions: Caco-2, pH 7.4
[14] = Terminal half life in rat at 5 mg/kg, po administered as single dose; assay type: ADME, organism-based; parameters: dose 5 mg/kg, route oral; conditions: in vivo, read-out: beta t1/2 (converted)
[15] = Plasma clearance in rat at 5 mg/kg, iv administered as single dose; assay type: ADME, organism-based; parameters: dose 5 mg/kg, route intravenous
[16] = test system: Mus musculus; test: Reduction in serum triglyceride level in overnight fasted DIO mouse model at 0.3 mg/kg, po administered as single dose 1 hr before and for 5 hrs after oral corn oil bolus challenge; assay type: functional, organism-based; parameters: dose 0.3 mg/kg
[17] = Oral bioavailability in mouse at 10 mg/kg administered as single dose; assay type: ADME, organism-based; conditions: in vivo
[18] = Cmax in mouse at 10 mg/kg, po administered as single dose; assay type: ADME, organism-based; parameters: dose 10 mg/kg, route oral; conditions: in vivo
[19] = Cmax in dog; assay type: ADME, organism-based, Canis lupus familiaris; conditions: plasma
[20] = biological target: T2, Diacylglycerol O-acyltransferase 2 (Homo sapiens, UniProt Q96PD7); test: Inhibition of human recombinant DGAT2 expressed in insect cell membrane using [1-14C]decanoyl-CoA substrate by phospholipid flash plate assay
T2 sequence (Q96PD7 whole entry): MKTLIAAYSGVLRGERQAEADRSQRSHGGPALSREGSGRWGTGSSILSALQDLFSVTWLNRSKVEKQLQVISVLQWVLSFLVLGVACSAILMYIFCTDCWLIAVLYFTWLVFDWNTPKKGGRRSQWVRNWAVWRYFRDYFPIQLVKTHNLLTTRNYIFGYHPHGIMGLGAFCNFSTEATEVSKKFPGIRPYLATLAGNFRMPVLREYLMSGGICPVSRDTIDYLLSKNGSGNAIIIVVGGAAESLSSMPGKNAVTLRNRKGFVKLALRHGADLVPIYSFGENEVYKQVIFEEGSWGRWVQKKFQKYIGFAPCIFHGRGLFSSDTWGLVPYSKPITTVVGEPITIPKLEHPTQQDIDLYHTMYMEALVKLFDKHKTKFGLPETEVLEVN

[21] = Stability in mouse liver microsomes assessed as parent compound remaining measured after 60 mins; assay type: ADME, Microsome; conditions: read-out: Stability
[22] = organism: Rattus norvegicus; test: Toxicity in rat assessed as changes in gastrointestinal transit measured at highest compound concentration; assay type: organism-based; conditions: in vivo
[23] = Permeability in human Caco2 cells at 0.5 uM at pH 7.4; assay type: ADME, cell-based; conditions: Caco-2, pH 7.4, read-out: permeability
[24] = Plasma concentration in CD1 mouse postprandial hyperlipidemia model at 0.3 mg/kg, po administered as single dose 1 hr before oral corn oil bolus challenge and measured after 2 hrs; assay type: ADME, organism-based; parameters: dose 0.3 mg/kg, route oral
[25] = biological target: T1, Diacylglycerol O-acyltransferase 1; test: Inhibition of human DGAT1 expressed in human HeLa cells assessed as reduction in triglyceride synthesis; assay type: cell-based
[26] = test system: Mus musculus; test: Reduction in serum triglyceride level in CD1 mouse postprandial hyperlipidemia model administered orally as single dose 1 hr before oral corn oil bolus challenge and measured after 2 hrs; assay type: functional, organism-based
[27] = Efflux ratio in human Caco2 cells at 0.5 uM at pH 7.4; assay type: ADME, cell-based; conditions: Caco-2, pH 7.4
[28] = Cmax in rat; assay type: ADME, organism-based; conditions: plasma
[29] = Terminal half life in mouse at 10 mg/kg, po administered as single dose; assay type: ADME, organism-based; parameters: dose 10 mg/kg, route oral; conditions: in vivo, read-out: beta t1/2 (converted)
[30] = Toxicity in dog Purkinje fibers assessed as prolongation of APD90 by Purkinje fibers repolarization assay; assay type: tissue-based, Canis lupus familiaris, Purkinje fiber; conditions: in vitro
[31] = test system: Rattus norvegicus; test: AUC in female rat dosed orally for 2 weeks assessed as terminal exposure; conditions: in vivo, po, 336 h
[32] = test system: Mus musculus; test: Reduction in serum triglyceride level in CD1 mouse postprandial hyperlipidemia model at 3 mg/kg, po administered as single dose 1 hr before oral corn oil bolus challenge and measured after 2 hrs; assay type: functional; parameters: scale not given: the % may be the effect or the level left
[33] = Oral bioavailability in rat at 5 mg/kg administered as single dose; assay type: ADME, organism-based; conditions: in vivo
[34] = biological target: Voltage-gated inwardly rectifying potassium channel KCNH2 (Homo sapiens, UniProt Q12809); test: Inhibition of human ERG by manual patch clamp assay
Voltage-gated inwardly rectifying potassium channel KCNH2, sequence (Q12809 whole entry): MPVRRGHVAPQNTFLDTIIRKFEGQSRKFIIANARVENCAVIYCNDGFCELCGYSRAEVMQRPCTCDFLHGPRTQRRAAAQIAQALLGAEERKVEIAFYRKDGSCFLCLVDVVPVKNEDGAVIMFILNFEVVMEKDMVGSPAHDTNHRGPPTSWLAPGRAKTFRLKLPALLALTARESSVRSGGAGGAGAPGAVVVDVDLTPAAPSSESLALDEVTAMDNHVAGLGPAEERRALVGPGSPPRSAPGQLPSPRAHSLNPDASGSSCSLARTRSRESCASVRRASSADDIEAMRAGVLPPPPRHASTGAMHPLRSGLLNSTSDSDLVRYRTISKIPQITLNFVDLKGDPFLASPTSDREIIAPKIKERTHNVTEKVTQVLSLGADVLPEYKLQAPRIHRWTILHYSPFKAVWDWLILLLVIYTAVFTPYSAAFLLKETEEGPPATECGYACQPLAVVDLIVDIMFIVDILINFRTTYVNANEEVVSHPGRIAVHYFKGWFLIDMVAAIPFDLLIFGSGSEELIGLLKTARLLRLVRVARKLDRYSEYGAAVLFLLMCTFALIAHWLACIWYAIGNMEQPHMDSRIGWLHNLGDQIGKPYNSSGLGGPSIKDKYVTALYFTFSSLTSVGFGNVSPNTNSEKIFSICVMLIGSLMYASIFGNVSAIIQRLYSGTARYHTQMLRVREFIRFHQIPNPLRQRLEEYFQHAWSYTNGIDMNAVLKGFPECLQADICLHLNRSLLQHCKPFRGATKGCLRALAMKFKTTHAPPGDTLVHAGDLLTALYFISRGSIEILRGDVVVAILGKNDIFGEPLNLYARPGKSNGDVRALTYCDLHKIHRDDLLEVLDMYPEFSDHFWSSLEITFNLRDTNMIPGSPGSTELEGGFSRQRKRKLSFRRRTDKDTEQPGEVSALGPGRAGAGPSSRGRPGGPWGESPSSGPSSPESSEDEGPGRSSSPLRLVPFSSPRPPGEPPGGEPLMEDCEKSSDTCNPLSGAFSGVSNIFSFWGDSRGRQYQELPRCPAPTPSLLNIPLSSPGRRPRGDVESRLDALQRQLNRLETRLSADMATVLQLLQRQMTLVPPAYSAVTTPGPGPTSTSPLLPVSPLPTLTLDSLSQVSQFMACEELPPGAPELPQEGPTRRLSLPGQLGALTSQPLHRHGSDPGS

[35] = AUC in mouse at 10 mg/kg, po administered as single dose; assay type: ADME, organism-based; parameters: dose 10 mg/kg, route oral; conditions: plasma
[36] = biological target: T3, Diacylglycerol O-acyltransferase 1 (Mus musculus, UniProt Q9Z2A7); test: Inhibition of mouse DGAT1 using [1-14C]decanoyl-CoA substrate by phospholipid flash plate assay
T3 sequence (Q9Z2A7 whole entry): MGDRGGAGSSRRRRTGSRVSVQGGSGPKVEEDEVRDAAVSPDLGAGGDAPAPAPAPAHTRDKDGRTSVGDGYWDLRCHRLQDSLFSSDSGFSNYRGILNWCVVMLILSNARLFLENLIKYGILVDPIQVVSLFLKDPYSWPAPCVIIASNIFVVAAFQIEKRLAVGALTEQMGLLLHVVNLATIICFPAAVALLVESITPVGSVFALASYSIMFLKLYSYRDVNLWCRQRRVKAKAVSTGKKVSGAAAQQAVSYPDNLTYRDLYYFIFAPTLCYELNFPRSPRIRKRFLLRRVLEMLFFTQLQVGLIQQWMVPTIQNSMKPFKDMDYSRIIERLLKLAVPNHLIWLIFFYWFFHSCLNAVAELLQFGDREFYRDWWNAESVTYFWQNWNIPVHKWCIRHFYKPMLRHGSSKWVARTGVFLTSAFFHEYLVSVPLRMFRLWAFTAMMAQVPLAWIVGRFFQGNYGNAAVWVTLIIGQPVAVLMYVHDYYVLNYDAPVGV

[37] = Plasma clearance in mouse at 10 mg/kg, iv administered as single dose; assay type: ADME, organism-based; parameters: dose 10 mg/kg, route intravenous
[38] = test system: Rattus norvegicus; test: Toxicity in female rat assessed as toxicity symptoms at terminal compound concentration dosed orally for 2 weeks; assay type: organism-based; conditions: in vivo, po, 336 h
[39] = organism: Canis familiaris; test: Toxicity in dog assessed as incidence of hemodynamic effect measured at highest compound concentration; assay type: organism-based, Canis lupus familiaris; conditions: in vivo
[40] = Terminal half life in mouse at 10 mg/kg, iv administered as single dose; assay type: ADME, organism-based; parameters: dose 10 mg/kg, route intravenous; conditions: in vivo, read-out: beta t1/2 (converted)
[41] = test system: Canis familiaris; test: Toxicity in dog assessed as toxicity symptoms at terminal compound concentration dosed orally for 2 weeks; assay type: organism-based, Canis lupus familiaris; conditions: in vivo, po, 336 h
[42] = AUC in rat at 5 mg/kg, po administered as single dose; assay type: ADME, organism-based; parameters: dose 5 mg/kg, route oral; conditions: plasma

remaining at 1 h [1]: < 5%
SMILES: CC(C)c1ccc(-c2cnc3ccnn3c2N)cc1

remaining at 1 h [1]: 73%
SMILES: CC(C)(C)c1ccc(-c2cncnc2N)cc1

IC50 [2]: > 10 µM
SMILES: Nc1c(-c2ccccc2)cnc2ccnn12

remaining at 1 h [1]: < 5%
SMILES: Nc1c(-c2ccc(Br)cc2)cnc2ccnn12

remaining at 1 h [1]: < 5%
IC50 [2]: > 10 µM
SMILES: Nc1c(-c2cccc(Br)c2)cnc2ccnn12

remaining at 1 h [1]: 69%
IC50 [2]: > 10 µM
SMILES: Nc1c(-c2ccccc2Br)cnc2ccnn12

remaining at 1 h [1]: 91%
IC50 [2]: > 10 µM
SMILES: CS(=O)(=O)c1ccc(-c2cnc3ccnn3c2N)cc1

concentration at 2 h [3]: 3.1 µg/mL
Vd [6]: 0.3 L/kg
remaining at 1 h [1]: 97%
Vd [7]: 0.3 L/kg
IC50 [2]: 0.008 µM
AUC [9]: 789 µg·h/mL
Cmax [10]: 9.3 µg/mL
concentration at 2 h [11]: 0.033 µg/mL
half-life [12]: 3.8 h
efflux ratio at 5 µM [13]: 1.1
half-life [14]: 5.6 h
clearance [15]: 0.05 L/h/kg
bioavailability [17]: 78%
Cmax [18]: 17.4 µg/mL
Cmax [19]: 20.5 µg/mL
IC50 [20]: > 10 µM
remaining at 1 h [21]: 99%
Papp at 0.5 µM [23]: 840 nm/s
concentration at 2 h [24]: 0.36 µg/mL
IC50 [25]: 0.078 µM
efflux ratio at 0.5 µM [27]: 1.4
Cmax [28]: 30.2 µg/mL
half-life [29]: 5.1 h
AUC [31]: 3455 µg·h/mL
bioavailability [33]: 91%
AUC [35]: 151 µg·h/mL
IC50 [36]: 0.008 µM
clearance [37]: 0.1 L/h/kg
half-life [40]: 4.6 h
AUC [42]: 130 µg·h/mL
SMILES: Nc1c(-c2ccc([C@H]3CC[C@H](CC(=O)O)CC3)cc2)cnc2ccnn12
Activity [4]: 40%
Activity [5]: 60%
Activity [8]: Non-toxic
Activity [16]: Active
Activity [22]: Non-toxic
Activity [26]: Dose-dependent effect
Activity [30]: Non-toxic
Activity [32]: 90%
IC50 [34]: > 300 µM
Activity [38]: Non-toxic
Activity [39]: Non-toxic
Activity [41]: Non-toxic

remaining at 1 h [1]: 16%
SMILES: CC(C)(C)c1ccc(-c2cnc3ccnn3c2N)cc1

remaining at 1 h [1]: 100%
IC50 [2]: > 10 µM
SMILES: Nc1c(-c2ccc(C(=O)O)cc2)cnc2ccnn12
